Reference: patent US12336971B2, “Ophthalmic pharmaceutical compositions and uses thereof” (ALCON INC., priority 2021, dated 2025)
Read-outs that look alike come from different tables or passages of the source.

Key:
[1] = Equilibrium solubility of WS-12 in compositions / evaluation of solubilizers (HPLC); assay type: physicochemical
Experimental: As explained above, WS-12 is insoluble in water. Regardless, it was necessary to identify excipients that would provide WS-12 with a solubility of about 200 μM (0.0058%) in an aqueous medium compatible with administration (e.g., topical administration) to a human (e.g., a human eye). Several solubilizers were evaluated, including PEG 400 (polyethylene glycol 400), KOLLIDON 30 (polyvinylpyrrolidone), propylene glycol, TWEEN 80 (polyoxyethylene (20) sorbitan monooleate), KOLLIPHOR® EL or KOLLIPHOR® ELP (polyoxyl 35 castor oil) and tyloxapol (ethylene oxide-formaldehyde-p-octylphenol copolymer).

[2] = Loss of WS-12 concentration on storage in polyolefin containers; assay type: physicochemical
Experimental: It was discovered that there is an inverse relationship between the crystallinity of the polyolefin and the amount of WS-12 absorbed into the polyolefin when the pharmaceutical composition is stored in contact with the polyolefin at elevated temperatures (e.g. 40° C.). Crystallinity was measured by determining the melting temperature of the polyolefin by DSC, with higher melting temperatures denoting greater crystallinity.
LDPE 1, LDPE 2, LDPE 3, LDPE 4, and LDPE 5 in Table 12 correspond to LDPEs from different suppliers. Melting point values of the polyolefins were experimentally determined by differential scanning calorimetry (DSC). The densities of the polyolefins were as provided by the manufacturer's product data sheet.

[3] = WS-12 content in blow-fill-seal LDPE containers after curing at 40° C. and storage at 25° C.; assay type: physicochemical; conditions: Formulation 1 in LDPE BFS units; cured 10 days at 40° C., then stored at 25° C. over 140 days; FIG. 8
Experimental: The ‘curing’ technique, or process, described herein exploits the temperature dependence of WS-12 absorption into LDPE to yield a product that is stable when stored at 25° C. In some embodiments, the curing technique includes the following steps: (a) producing the BFS containers filled with an ophthalmic pharmaceutical composition provided herein; (b) storing the filled BFS containers at a first temperature (e.g. 40° C.) to drive WS-12 into the LDPE container with the aim of saturating the container walls with WS-12; and (c) subsequently storing the BFS containers at a second temperature (e.g., 25° C.) whereupon further loss of WS-12 to the container walls is stemmed due to the above described saturation process.
(99A long-term 25° C. trace). The first data point of each line represents the content of WS-12 in the BFS article after the curing period (e.g., the first temperature of storage). The amount of WS-12 lost to the LDPE increased as the duration of curing at 40° C. was increased from 1 day to 10 days. […] After a curing period of 10 days at 40° C. (black circles), the content of WS-12 in the BFS units stored at 25° C. was constant over a period of 140 days.

[4] = Chemical stability of WS-12 to typical drug stressors; assay type: physicochemical; conditions: typical drug stressors (acid, base, peroxide, heat, light)
[5] = JECFA, cited from earlier work

WS-12 level dissolved ([1]; KOLLIPHOR EL 3% w/v): ≥ 200 µM | Effect on WS-12 solubility ([1]; TWEEN 80, required concentration greater than 4%): significantly increased | solubility ([1]; aqueous medium with solubilizer, aqueous with cosolvent or surfactant or cyclodextrin, thermodynamic from solid, KOLLIDON 30 (polyvinylpyrrolidone), read-out: WS-12 level solubilized): < 200 µM | solubility ([1]; aqueous ophthalmic composition, 2 °C, aqueous with cosolvent or surfactant or cyclodextrin, thermodynamic from solid, in 3% KOLLIPHOR EL, 0.14% hypromellose, 0.78% Na dihydrogen phosphate dihydrate, 0.55% NaCl, pH 7, 2°-8° C., read-out: WS-12 Solubility (mg/mL) 2°-8° C.): 0.041 mg/mL | solubility ([1]; aqueous ophthalmic composition, aqueous with cosolvent or surfactant or cyclodextrin, thermodynamic from solid, in 3% KOLLIPHOR EL, 0.14% hypromellose, 0.78% Na dihydrogen phosphate dihydrate, 0.55% NaCl, pH 7, about 17° C., read-out: WS-12 Solubility (mg/mL) Room Temp (about 17° C.)): 0.055 mg/mL | solubility ([1]; propylene glycol, read-out: WS-12 level solubilized): < 200 µM | solubility ([1]; tyloxapol, read-out: WS-12 level solubilized): < 200 µM | Percent Loss in WS-12 Concentration After Storage in Polyolefin Container for 2 Weeks at 40° C. ([2]; High Density Polyethylene (HDPE)): 1.3% | Percent Loss in WS-12 Concentration After Storage in Polyolefin Container for 2 Weeks at 40° C. ([2]; Low Density Polyethylene (LDPE 1)): 2.8% | Percent Loss in WS-12 Concentration After Storage in Polyolefin Container for 2 Weeks at 40° C. ([2]; Low Density Polyethylene (LDPE 2)): 2.8% | Percent Loss in WS-12 Concentration After Storage in Polyolefin Container for 2 Weeks at 40° C. ([2]; Low Density Polyethylene (LDPE 3)): 3.3% | Percent Loss in WS-12 Concentration After Storage in Polyolefin Container for 2 Weeks at 40° C. ([2]; Low Density Polyethylene (LDPE 4)): 4.0% | Percent Loss in WS-12 Concentration After Storage in Polyolefin Container for 2 Weeks at 40° C. ([2]; Low Density Polyethylene (LDPE 5)): 4.5% | Percent Loss in WS-12 Concentration After Storage in Polyolefin Container for 2 Weeks at 40° C. ([2]; Polypropylene (PP)): 1.3% | Content of WS-12 in the BFS units [3]: constant | Chemical stability [4]: chemically stable
SMILES: COc1ccc(NC(=O)[C@@H]2C[C@H](C)CC[C@H]2C(C)C)cc1 [WS-12, (1R,2S,5R)-2-isopropyl-N-(4-methoxyphenyl)-5-methylcyclohexane-1-carboxamide]
Solubility in avocado oil ([5]; avocado oil): sparingly soluble | Solubility in ethanol ([5]; ethanol): sparingly soluble | Solubility in water ([5]; water): insoluble
